Source: patent publication US20130072427A1, “GPR 119 MODULATORS” (Pfizer Inc., priority 2009, published 2013)
Values joined by “and” are separate entries in the source; they are usually repeats but may differ in a detail not shown here. Identical values can stand only once.

Legend:
[1] = biological target: T1, human GPR119 (Homo sapiens, UniProt Q8TDV5); assay: Beta-lactamase functional assay (hGPR119 HEK293-CRE beta-lactamase reporter); assay type: cell-based
T1 construct: host or cells: HEK293-CRE beta-lactamase cells
T1 sequence (Q8TDV5 1-335): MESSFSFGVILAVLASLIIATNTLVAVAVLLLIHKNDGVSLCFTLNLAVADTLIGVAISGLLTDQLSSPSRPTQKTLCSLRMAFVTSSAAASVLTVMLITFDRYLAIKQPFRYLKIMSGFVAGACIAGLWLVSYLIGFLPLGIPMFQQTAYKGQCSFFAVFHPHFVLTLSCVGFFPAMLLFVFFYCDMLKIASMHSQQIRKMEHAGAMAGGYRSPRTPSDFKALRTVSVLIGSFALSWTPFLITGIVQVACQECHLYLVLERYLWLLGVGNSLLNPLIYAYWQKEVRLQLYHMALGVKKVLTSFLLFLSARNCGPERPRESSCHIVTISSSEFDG
Procedure: The assay for GPR119 agonists utilizes a cell-based (hGPR119 HEK293-CRE beta-lactamase) reporter construct where agonist activation of human GPR119 is coupled to beta-lactamase production via a cyclic AMP response element (CRE). GPR119 activity is then measured utilizing a FRET-enabled beta-lactamase substrate, CCF4-AM (Live Blazer FRET-B/G Loading kit, Invitrogen cat #K1027). Specifically, hGPR119-HEK-CRE-beta-lactamase cells (Invitrogen 2.5×10^7/mL) were removed from liquid nitrogen storage, and diluted in plating medium (Dulbecco's modified Eagle medium high glucose (DMEM; Gibco Cat #11995-065), 10% heat inactivated fetal bovine serum (HIFBS; Sigma Cat #F4135), 1×MEM Nonessential amino acids (Gibco Cat #15630-080), 25 mM HEPES pH 7.0 (Gibco Cat #15630-080), 200 nM potassium clavulanate (Sigma Cat #P3494). The cell concentration was adjusted using cell plating medium and 50 microL of this cell suspension ([…]) was added into each well of a black, clear bottom, poly-d-lysine coated 384-well plate (Greiner Bio-One cat #781946) and incubated at 37 degrees Celsius in a humidified environment containing 5% carbon dioxide. After 4 hours the plating medium was removed and replaced with 40 microL of assay medium (Assay medium is plating medium without potassium clavulanate and HIFBS). Varying concentrations of each compound to be tested was then added in a volume of 10 microL (final DMSO≦0.5%) and the cells were incubated for 16 hours at 37 degrees Celsius in a humidified environment containing 5% carbon dioxide. Plates were removed from the incubator and allowed to equilibrate to room temperature for approximately 15 minutes. 10 microL of 6×CCF4/AM working dye solution (prepared according to instructions in the Live Blazer FRET-B/G Loading kit, Invitrogen cat #K1027) was added per well and incubated at room temperature for 2 hours in the dark. Fluorescence was measured on an EnVision fluorimetric plate reader, excitation 405 nm, emission 460 nm/535 nm. EC50 determinations were made from agonist-response curves analyzed with a curve fitting program using a 4-parameter logistic dose-response equation.

[2] = biological target: T1, human GPR119; assay: cAMP functional assay (HTRF, hGPR119 HEK-CRE beta-lactamase cells); assay type: cell-based
Procedure: GPR119 agonist activity was also determined with a cell-based assay utilizing an HTRF (Homogeneous Time-Resolved Fluorescence) cAMP detection kit (cAMP dynamic 2 Assay Kit; Cis Bio cat #62AM4PEC) that measures cAMP levels in the cell. The method is a competitive immunoassay between native cAMP produced by the cells and the cAMP labeled with the dye d2. The tracer binding is visualized by a Mab anti-cAMP labeled with Cryptate. The specific signal (i.e. energy transfer) is inversely proportional to the concentration of cAMP in either standard or sample.
Specifically, hGPR119HEK-CRE beta-lactamase cells (Invitrogen 2.5×10^7/ml; the same cell line used in the beta-lactamase assay described above) are removed from cryopreservation and diluted in growth medium (Dulbecco's modified Eagle medium high glucose (DMEM; Gibco Cat #11995-065), 1% charcoal dextran treated fetal bovine serum (CD serum; HyClone Cat #SH30068.03), 1×MEM Nonessential amino acids (Gibco Cat #15630-080) and 25 mM HEPES pH 7.0 (Gibco Cat #15630-080)). The cell concentration was adjusted to 1.5×10^5 cells/ml and 30 mls of this suspension was added to a T-175 flask and incubated at 37 degrees Celsius in a humidified environment in 5% carbon dioxide. After 16 hours (overnight), the cells were removed from the T-175 flask (by rapping the side of the flask), centrifuged at 800×g and then re-suspended in assay medium (1×HBSS+CaCl2+MgCl2 (Gibco Cat #14025-092) and 25 mM HEPES pH 7.0 (Gibco Cat #15630-080)). The cell concentration was adjusted to 6.25×10^5 cells/ml with assay medium and 8 μl of this cell suspension (5000 cells) was added to each well of a white Greiner 384-well, low-volume assay plate (VWR cat #82051-458).
Varying concentrations of each compound to be tested were diluted in assay buffer containing 3-isobutyl-1-methylxanthin (IBMX; Sigma cat #15879) and added to the assay plate wells in a volume of 2 microL (final IBMX concentration was 400 microM and final DMSO concentration was 0.58%). Following 30 minutes incubation at room temperature, 5 microL of labeled d2 cAMP and 5 microL of anti-cAMP antibody (both diluted 1:20 in cell lysis buffer; as described in the manufacturers assay protocol) were added to each well of the assay plate. The plates were then incubated at room temperature and after 60 minutes, changes in the HTRF signal were read with an Envision 2104 multilabel plate reader using excitation of 330 nm and emissions of 615 and 665 nm. Raw data were converted to nM cAMP by interpolation from a cAMP standard curve (as described in the manufacturer's assay protocol) and EC50 determinations were made from an agonist-response curves analyzed with a curve fitting program using a 4-paramter logistic dose response equation.

[3] = biological target: T1, human GPR119; assay: GPR119 radioligand binding assay ([3H]Cmpd A, membranes of HEK 293FT cells over-expressing hGPR119); conditions: competition with 3H-Cmpd A; Ki from IC50 by Cheng-Prusoff; one line per run
Procedure: HEK 293FT cells (Invitrogen, Carlsbad, Calif.) were grown in a shake flask in 293Freestyle medium (Invitrogen) supplemented with 50 microg/mL neomycin and 10 mM HEPES (37 C, 8% carbon dioxide, shaking). The cells were centrifuged gently (approximately 500×g, 10 minutes) and the pellet resuspended in a mixture of Dulbecco's PBS(minus Mg++/−Ca++) supplemented with 18% fetal bovine serum (Sigma Aldrich) and P1 virus such that the multiplicity of infection (MOI) was 10 and the final cell density was 1.3×10^6/ml (total volume 2.5 liters). The cells were transferred to a 5 liter Wave Bioreactor Wavebag (Wave Technologies, MA) and incubated for 4 hours at 27 degrees Celsius (17 rocks/min, 7 degrees platform angle); at the end of the incubation period, an equal volume (2.5 liters) of 293Freestyle medium supplemented with 30 mM sodium butyrate (Sigma Aldrich) was added (final concentration=15 mM), and the cells were grown for 20 hours (37 degrees Celsius, 8% CO2 [0.2 liters/min}, 25 rocks/minute, 7 degrees platform angle). Cells were harvested via centrifugation (3,000×g, 10 minutes), washed once on DPBS (minus Ca++/Mg++), resuspended in 0.25M sucrose, 25 mM HEPES, 0.5 mM EDTA, pH 7.4 and frozen at −80 degrees Celsius.
The frozen cells were thawed on ice and centrifuged at 700×g (1400 rpm) for 10 minutes at 4 degrees Celsius. The cell pellet was resuspended in 20 ml phosphate-buffered saline, and centrifuged at 1400 rpm for 10 minutes. The cell pellet was then resuspended in homogenization buffer (10 mM HEPES (Gibco #15630), pH 7.5, 1 mM EDTA (BioSolutions, #BIO260-15), 1 mM EGTA (Sigma, #E-4378), 0.01 mg/ml benzamidine (Sigma #B 6506), 0.01 mg/ml bacitracin (Sigma #B 0125), 0.005 mg/ml leupeptin (Sigma #L 8511), 0.005 mg/ml aprotinin (Sigma #A 1153)) and incubated on ice for 10 minutes. Cells were then lysed with 15 gentle strokes of a tight-fitting glass Dounce homogenizer. The homogenate was centrifuged at 1000×g (2200 rpm) for 10 minutes at 4 degrees Celsius. The supernatant was transferred into fresh centrifuge tubes on ice. The cell pellet was resuspended in homogenization buffer, and centrifuged again at 1000×g (2200 rpm) for 10 minutes at 4 degrees Celsius after which the supernatant was removed and the pellet resuspended in homogenization buffer. This process was repeated a third time, after which the supernatants were combined, Benzonase (Novagen #71206) and MgCl2 (Fluka #63020) were added to final concentrations of 1 U/ml and 6 mM, respectively, and incubated on ice for one hour. The solution was then centrifuged at 25,000×g (15000 rpm) for 20 minutes at 4 degrees Celsius, the supernatant was discarded, and the pellet was resuspended in fresh homogenization buffer (minus Benzonase and MgCl2). After repeating the 25,000×g centrifugation step, the final membrane pellet was resuspended in homogenization buffer and frozen at −80 degrees Celsius. The protein concentration was determined using the Pierce BCA protein assay kit (Pierce reagents A #23223 and B #23224).
Test compounds were serially diluted in 100% DMSO (J. T. Baker #922401). 2 microL of each dilution was added to appropriate wells of a 96-well plate (each concentration in triplicate). Unlabeled Cmpd A, at a final concentration of 10 microM, was used to determine non-specific binding.
^3H-Cmpd A was diluted in binding buffer (50 mM Tris-HCl, pH 7.5, (Sigma #T7443), 10 mM MgCl2 (Fluka 63020), 1 mM EDTA (BioSolutions #BIO260-15), 0.15% bovine serum albumin (Sigma #A7511), 0.01 mg/mL benzamidine (Sigma #B 6506), 0.01 mg/mL bacitracin (Sigma #B 0125), 0.005 mg/mL leupeptin (Sigma #L 8511), 0.005 mg/mL aprotinin (Sigma #A 1153)) to a concentration of 60 nM, and 100 microL added to all wells of 96-well plate (Nalge Nunc #267245).
Membranes expressing GPR119 were thawed and diluted to a final concentration of 20 μg/100 microL per well in Binding Buffer, and 100 microL of diluted membranes were added to each well of 96-well plate. […]

[4] = hGPR119 HEK-CRE beta-lactamase cells, HTRF cAMP, 30 minutes, one line per run, read-out: Human cAMP Functional EC50
[5] = percent of maximal activity relative to standard GPR119 agonist (WO2005121121) at 10 μM, one line per run, read-out: Intrinsic Activity* (%) (cAMP)

| Structure (SMILES) | EC50 ([1]; **the curve was extrapolated to 100% to calculate an EC50, read-out: Human B-lactamase Functional EC50 (nM), curve extrapolated to 100%) [nM] | Emax ([1]; **the curve was extrapolated to 100% to calculate an EC50, read-out: Intrinsic Activity* (%) (B-lactamase), curve extrapolated to 100%) | EC50 ([1]; hGPR119 HEK293-CRE beta-lactamase cells, 16 hours incubation, one line per run, read-out: Human B-lactamase Functional EC50) [nM] | Emax ([1]; percent of maximal activity relative to standard GPR119 agonist (WO2005121121) at 10 microM, one line per run, read-out: Intrinsic Activity* (%) (B-lactamase)) | EC50 ([2]; **the curve was extrapolated to 100% to calculate an EC50, read-out: Human cAMP Functional EC50 (nM), curve extrapolated to 100%) [nM] | Emax ([2]; **the curve was extrapolated to 100% to calculate an EC50, read-out: Intrinsic Activity* (%) (cAMP), curve extrapolated to 100%) | EC50 [2, 4] | Ki [3] [µM] | Emax [2, 5] [%] |
| --- | --- | --- | --- | --- | --- | --- | --- | --- | --- |
| CC(C)OC(=O)N1CCC(Oc2cc(N3Cc4cnn(C)c4C3)ncn2)CC1 [Example 1, Isopropyl 4-{[6-(1-methyl-4,6-dihydropyrrolo[3,4-c]pyrazol-5(1H)-yl)pyrimidin-4-yl]oxy}piperidine-1-carboxylate] | 9220 | 100 | 3850 | 116 | 7500 | 100 | > 10000 nM | – | – |
| Cc1c(O[C@H]2[C@@H]3COC[C@H]2CN(C(=O)OC2(C)CC2)C3)ncnc1N1Cc2cnn(C)c2C1 [Example 10, 1-Methylcyclopropyyl (9-anti)-9-{[5-methyl-6-(1-methyl-4,6-dihydropyrrolo[3,4-c]pyrazol-5(1H)-yl)pyrimidin-4-yl]oxy}-3-oxa-7-azabicyclo[3.3.1]nonane-7-carboxylate] | – | – | – | – | – | – | 239 nM and 108 nM | 0.026 | – |
| Cc1c(OC2CCN(C(=O)OC3(C)CC3)CC2)ncnc1N1Cc2cnn(C)c2C1 [Example 5, 1-Methylcyclopropyl 4-{[5-methyl-6-(1-methyl-4,6-dihydropyrrolo[3,4-c]pyrazol-5(1H)-yl)pyrimidin-4-yl]oxy}piperidine-1-carboxylate] | – | – | – | – | – | – | 118 nM | – | 82 |
| Cc1c(O[C@H]2CCN(C(=O)OC(C)C)C[C@H]2F)ncnc1N1Cc2cnn(C)c2C1 (racemic) [Example 13, 1-Isopropyl (3,4-cis)-3-fluoro-4-{[5-methyl-6-(1-methyl-4,6-dihydropyrrolo[3,4-c]pyrazol-5(1H)-yl)pyrimidin-4-yl]oxy}piperidine-1-carboxylate] | – | – | – | – | – | – | 18 nM | – | 36 |
